Here are results for 14 molecules from patent US8735425B2, “Tetrahydroisoquinoline derivative” (Daiichi Sankyo Company, Limited, priority 2008, dated 2014).

One experiment has as its system Male C57BL/6N mice. As to the kind of experiment: Triglyceride absorption suppression after fat loading (in vivo DGAT1 inhibitory effect). The settings on record: Mus musculus, po; dose of 10 mg/kg or lower, orally administered, mice fasted overnight, plasma triglyceride after fat loading; read-out: Triglyceride absorption suppressive activity. Put shortly:
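Overnight-fasted male C57BL/6N mice dosed orally with compound (1 to 10 mg/kg in 0.5% methylcellulose), then given Pluronic-F127 1 g/kg i.p. and an oral 20% Intralipid load. Plasma triglyceride measured 1 to 4 h later. Absorption suppression (%) calculated against water-loaded and fat-loaded vehicle groups.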

The next experiment addresses T1, DGAT1 enzyme (Homo sapiens, UniProt O75907).
T1 construct: made in house
T1 sequence (O75907 1-488): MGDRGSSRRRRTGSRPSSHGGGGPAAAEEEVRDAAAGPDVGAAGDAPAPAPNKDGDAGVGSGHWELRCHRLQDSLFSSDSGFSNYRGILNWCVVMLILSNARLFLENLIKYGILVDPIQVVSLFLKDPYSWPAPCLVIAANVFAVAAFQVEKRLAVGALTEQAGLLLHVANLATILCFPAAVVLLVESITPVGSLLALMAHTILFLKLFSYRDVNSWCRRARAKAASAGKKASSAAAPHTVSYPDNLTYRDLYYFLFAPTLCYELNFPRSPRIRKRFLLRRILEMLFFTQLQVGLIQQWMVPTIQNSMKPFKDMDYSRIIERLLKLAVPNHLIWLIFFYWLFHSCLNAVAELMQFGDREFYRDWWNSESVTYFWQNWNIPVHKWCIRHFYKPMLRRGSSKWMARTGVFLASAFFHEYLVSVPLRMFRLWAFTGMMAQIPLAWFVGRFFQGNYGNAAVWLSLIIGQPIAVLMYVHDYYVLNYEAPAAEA
As to the kind of experiment: DGAT1 inhibitory activity test. The settings on record: test compound concentration of 0.05 μg/ml; read-out: Inhibitory Rate. Format: biochemical. An outline of the steps: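 Reaction at 23° C for 30 min in 175 mM Tris-HCl pH 8.0, 8 mM MgCl2, 1 mg/ml BSA, 0.5% Triton X-100 with 0.3 mM 1,2-dioleoyl-sn-glycerol and 10 μM [14C]-oleoyl-CoA. Triglyceride extracted into heptane, separated by TLC, radioactivity quantified; % inhibition versus vehicle control, 0-min background subtracted.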

Molecules are shown by their SMILES.

As for `O=C(O)C[C@H]1CC[C@H](OC(=O)N2CCc3cc(NC(=O)NC4CCCCC4)ccc3C2)CC1` [Example 84, trans-6-(3-cyclohexyl-ureido)-3,4-dihydro-1H-isoquinoline-2-carboxylic acid 4-carboxymethyl-cyclohexyl ester], the inhibition in vivo at up to 10 mg/kg with Male C57BL/6N mice was not below 60%. Also, the inhibition at 0.05 µg/mL on DGAT1 enzyme was not below 50%.

Regarding `O=C(O)C[C@H]1CC[C@H](OC(=O)N2CCc3cc(NC(=O)NCC4CCCCC4)ccc3C2)CC1` [Example 85, trans-6-(3-cyclohexylmethyl-ureido)-3,4-dihydro-1H-isoquinoline-2-carboxylic acid 4-carboxymethyl-cyclohexyl ester], the inhibition in vivo at up to 10 mg/kg with Male C57BL/6N mice is not below 60%. In addition, the inhibition at 0.05 µg/mL on DGAT1 enzyme is not below 50%.

In the case of `O=C(O)C[C@H]1CC[C@H](OC(=O)N2CCc3cc(NC(=O)NC45CC6CC(CC(C6)C4)C5)ccc3C2)CC1` [Example 86, trans-6-(3-adamantan-1-yl-ureido)-3,4-dihydro-1H-isoquinoline-2-carboxylic acid 4-carboxymethyl-cyclohexyl ester], the inhibition in vivo at up to 10 mg/kg in the experiment on Male C57BL/6N mice is not below 60%. Further, the inhibition at 0.05 µg/mL at DGAT1 enzyme is not below 50%.

Turning to `Cc1cncc(NC(=O)Nc2ccc3c(c2)CCN(C(=O)O[C@H]2CC[C@H](CC(=O)O)CC2)C3)c1` [Example 90, trans-6-[3-(5-methyl-pyridin-3-yl)-ureido]-3,4-dihydro-1H-isoquinoline-2-carboxylic acid 4-carboxymethyl-cyclohexyl ester], the inhibition in vivo at up to 10 mg/kg in the experiment on Male C57BL/6N mice was not below 60%. Further, the inhibition at 0.05 µg/mL at DGAT1 enzyme was not below 50%.

Consider `O=C(O)C[C@H]1CC[C@H](OC(=O)N2CCc3cc(NC(=O)Nc4ccc(Cl)cn4)ccc3C2)CC1` [Example 91, trans-6-[3-(5-chloro-pyridin-2-yl)-ureido]-3,4-dihydro-1H-isoquinoline-2-carboxylic acid 4-carboxymethyl-cyclohexyl ester], for which the inhibition in vivo at up to 10 mg/kg with Male C57BL/6N mice is not below 60%. In addition, the inhibition at 0.05 µg/mL at DGAT1 enzyme is not below 50%.

Turning to `O=C(O)C[C@H]1CC[C@H](OC(=O)N2CCc3cc(NC(=O)Nc4ccc(Cl)nc4)ccc3C2)CC1` [Example 92, trans-6-[3-(6-chloro-pyridin-3-yl)-ureido]-3,4-dihydro-1H-isoquinoline-2-carboxylic acid 4-carboxymethyl-cyclohexyl ester], the inhibition in vivo at up to 10 mg/kg with Male C57BL/6N mice is not below 60%. On DGAT1 enzyme, the inhibition at 0.05 µg/mL was not below 50%.

Turning to `Cc1cnc(NC(=O)Nc2ccc3c(c2)CCN(C(=O)O[C@H]2CC[C@H](CC(=O)O)CC2)C3)s1` [Example 95, trans-6-[3-(5-methyl-thiazol-2-yl)-ureido]-3,4-dihydro-1H-isoquinoline-2-carboxylic acid 4-carboxymethyl-cyclohexyl ester], the inhibition in vivo at up to 10 mg/kg with Male C57BL/6N mice was not below 60%. The inhibition at 0.05 µg/mL at DGAT1 enzyme was not below 50%.

For the molecule `Cc1cc(NC(=O)Nc2ccc3c(c2)CCN(C(=O)O[C@H]2CC[C@H](CC(=O)O)CC2)C3)no1` [Example 97, trans-6-[3-(5-methyl-isoxazol-3-yl)-ureido]-3,4-dihydro-1H-isoquinoline-2-carboxylic acid 4-carboxymethyl-cyclohexyl ester], the inhibition in vivo at up to 10 mg/kg in the experiment with Male C57BL/6N mice was not below 60%. For the same molecule, at DGAT1 enzyme, the inhibition at 0.05 µg/mL is not below 50%.

`C[C@@H]1C[C@H](CC(=O)O)CC[C@H]1OC(=O)N1CCc2cc(NC(=O)Nc3cccc(OC(F)(F)F)c3)ccc2C1` [Example 102, 6-[3-(3-trifluoromethoxy-phenyl)-ureido]-3,4-dihydro-1H-isoquinoline-2-carboxylic acidt-4-carboxymethyl-t-2-methyl-r-1-cyclohexyl ester]: the inhibition in vivo at up to 10 mg/kg in the experiment with Male C57BL/6N mice is not below 60%. Further, on DGAT1 enzyme, the inhibition at 0.05 µg/mL is not below 50%.

Consider `CC(C(=O)O)[C@H]1CC[C@H](OC(=O)N2CCc3cc(NC(=O)Nc4ccccc4F)ccc3C2)CC1` (stereo partly drawn) [Example 103, trans-6-[3-(2-fluoro-phenyl)-ureido]-3,4-dihydro-1H-isoquinoline-2-carboxylic acid 4-(1-carboxy-ethyl)-cyclohexyl ester], for which the inhibition in vivo at up to 10 mg/kg in the experiment with Male C57BL/6N mice was not below 60%. Also, the inhibition at 0.05 µg/mL at DGAT1 enzyme is not below 50%.

Consider `COc1cccc(NC(=O)Nc2ccc3c(c2)CCN(C(=O)O[C@H]2CC[C@H](C(C)C(=O)O)CC2)C3)c1` (stereo partly drawn) [Example 104, trans-6-[3-(3-methoxy-phenyl)-ureido]-3,4-dihydro-1H-isoquinoline-2-carboxylic acid 4-(1-carboxy-ethyl)-cyclohexyl ester], for which the inhibition in vivo at up to 10 mg/kg in the experiment on Male C57BL/6N mice is not below 60%. Besides, the inhibition at 0.05 µg/mL on DGAT1 enzyme is not below 50%.

On to `CC(C(=O)O)[C@H]1CC[C@H](OC(=O)N2CCc3cc(NC(=O)Nc4ccccc4)ccc3C2)CC1` (stereo partly drawn) [Example 105, trans-6-(3-phenyl-ureido)-3,4-dihydro-1H-isoquinoline-2-carboxylic acid 4-(1-carboxy-ethyl)-cyclohexyl ester], for which the inhibition in vivo at up to 10 mg/kg with Male C57BL/6N mice is not below 60%. Also, at DGAT1 enzyme, the inhibition at 0.05 µg/mL was not below 50%.

For `CC(C(=O)O)C1CCC(CC(=O)N2CCc3cc(NC(=O)Nc4ccccc4F)ccc3C2)CC1` (stereo not shown) [Example 107, 2-[4-(2-{6-[3-(2-fluoro-phenyl)-ureido]-3,4-dihydro-1H-isoquinolin-2-yl}-2-oxo-ethyl)-cyclohexyl]-propionic acid], in the experiment on Male C57BL/6N mice, the inhibition in vivo at up to 10 mg/kg was not below 60%. In addition, the inhibition at 0.05 µg/mL on DGAT1 enzyme is not below 50%.

On to `CN(C(=O)N1CCc2cc(NC(=O)Nc3ccccc3F)ccc2C1)C1CCC(CC(=O)O)CC1` (stereo not shown) [Example 108, [4-({6-[3-(2-fluoro-phenyl)-ureido]-3,4-dihydro-1H-isoquinoline-2-carbonyl}-methyl-amino)-cyclohexyl]-acetic acid], for which the inhibition in vivo at up to 10 mg/kg with Male C57BL/6N mice is not below 60%. Also, the inhibition at 0.05 µg/mL at DGAT1 enzyme was not below 50%.
